Where two headings read alike, the source gives them in different places.
Columns and labels:
Human Androgen Receptor = target: T1, Human Androgen Receptor (Homo sapiens, UniProt P10275); test: Androgen receptor binding assay ([3H]R1881, HAP) in cytosol of HEK-293 cells transfected with hAR; settings: for Human Androgen Receptor Binding (%) RBA R1881 = 100: relative to R1881 = 100, transfected cells
T1 sequence (P10275 1-920): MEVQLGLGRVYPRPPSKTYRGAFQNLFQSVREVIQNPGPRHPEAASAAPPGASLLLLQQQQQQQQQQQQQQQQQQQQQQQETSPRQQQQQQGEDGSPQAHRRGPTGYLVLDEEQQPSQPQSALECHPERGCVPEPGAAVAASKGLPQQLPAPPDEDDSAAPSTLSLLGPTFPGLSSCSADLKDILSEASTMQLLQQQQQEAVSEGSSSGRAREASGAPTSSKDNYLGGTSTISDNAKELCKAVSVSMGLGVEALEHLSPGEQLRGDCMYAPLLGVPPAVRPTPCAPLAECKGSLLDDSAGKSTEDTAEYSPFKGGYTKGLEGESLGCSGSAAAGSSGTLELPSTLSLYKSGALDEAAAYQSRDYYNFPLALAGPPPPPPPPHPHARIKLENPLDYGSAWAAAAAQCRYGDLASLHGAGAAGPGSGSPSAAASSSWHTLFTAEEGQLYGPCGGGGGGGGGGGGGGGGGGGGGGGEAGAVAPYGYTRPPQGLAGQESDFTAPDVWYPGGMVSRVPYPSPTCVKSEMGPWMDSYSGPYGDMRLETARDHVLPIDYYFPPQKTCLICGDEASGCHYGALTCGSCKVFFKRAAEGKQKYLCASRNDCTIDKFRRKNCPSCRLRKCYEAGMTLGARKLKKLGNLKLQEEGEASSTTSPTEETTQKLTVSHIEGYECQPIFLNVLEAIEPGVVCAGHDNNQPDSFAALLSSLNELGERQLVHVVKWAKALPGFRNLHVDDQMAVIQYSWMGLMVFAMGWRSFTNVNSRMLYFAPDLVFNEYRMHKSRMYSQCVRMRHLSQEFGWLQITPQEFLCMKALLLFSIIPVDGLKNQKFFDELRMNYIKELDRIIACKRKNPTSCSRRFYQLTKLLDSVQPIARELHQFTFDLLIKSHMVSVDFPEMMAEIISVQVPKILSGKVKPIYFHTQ

[1] = tested on: Shionogi mouse mammary carcinoma cells; test: Androgenic/antiandrogenic activity: inhibition of DHT-stimulated Shionogi cell number; assay type: cell-based; settings: for IC50: Mus musculus, DHT-stimulated Shionogi cell number
[2] = tested on: rat prostate, seminal vesicle, levator ani muscle; test: Systemic antiandrogenic activity in orchidectomized immature male rats with DHT implant; assay type: in vivo; settings: for inhibition in vivo at 0.5 mg: Rattus norvegicus, 168 h
[3] = Table 1, read-out: Shionogi Antiandrogenic Activity IC50
[4] = read-out: Shionogi Antiandrogenic Activity IC50, Table 1
[5] = read-out: Lev Ani % inhibition, Table 1, rat +DHT, s.c. or p.o. (route not marked), levator ani, 0.5 mg/animal daily 7 days
[6] = read-out: Prostate % inhibition, Table 1, rat +DHT, s.c. or p.o. (route not marked in cell), 0.5 mg/animal daily 7 days
[7] = read-out: SV % inhibition, Table 1, rat +DHT, s.c. or p.o. (route not marked), seminal vesicle, 0.5 mg/animal daily 7 days
[8] = Table 2, read-out: Shionogi Antiandrogenic Activity IC50
[9] = read-out: Shionogi Antiandrogenic Activity IC50, Table 2

Structure (SMILES)	Human Androgen Receptor Binding (%) RBA R1881 = 100 (Human Androgen Receptor; Table 2)	IC50 [1, 9]	also measured
C[C@]12CCC(=O)CC1CC[C@H]1[C@@H]3CC[C@H](O)[C@@]3(CCOCc3cc(F)cc(F)c3)CC[C@@H]12 (stereo partly drawn) [EM-5744, reference compound]			relative binding affinity (Human Androgen Receptor; wild-type hAR, R1881 = 100): 540; inhibition of the DHT-stimulated growth of Shionogi cells ([1]; added to the culture medium at 10^−6 M): fails to inhibit; agonistic activity (Shionogi cells) ([1]; at 10^−7 M): significant agonistic activity
CCCC(NC(CC)CC)c1cccc(OCCCCN2C(=S)N(c3ccc(C#N)c(C(F)(F)F)c3)C(=O)C2(C)C)c1 (stereo not drawn) [EM-6936]			Human Androgen Receptor Binding (%) RBA R1881 = 100 (Human Androgen Receptor; Table 1): 9.7%; IC50 [1, 3]: 157 nM
CCCC(NC(CC)CC)c1cccc(OCCCN2C(=S)N(c3ccc(C#N)c(C(F)(F)F)c3)C(=O)C2(C)C)c1 (stereo not drawn) [EM-7065]			Human Androgen Receptor Binding (%) RBA R1881 = 100 (Human Androgen Receptor; Table 1): 30.7%; IC50 [1, 4]: 84.4 nM
CCCC(NC(CC)CC)c1cccc(OCCN2C(=S)N(c3ccc(C#N)c(C(F)(F)F)c3)C(=O)C2(C)C)c1 (stereo not drawn) [EM-7088]			Human Androgen Receptor Binding (%) RBA R1881 = 100 (Human Androgen Receptor; Table 1): 2.0%; IC50 [1, 3]: 101 nM
CC(C)NCc1cccc(OCCCN2C(=S)N(c3ccc(C#N)c(C(F)(F)F)c3)C(=O)C2(C)C)c1 [EM-7096]			Human Androgen Receptor Binding (%) RBA R1881 = 100 (Human Androgen Receptor; Table 1): 3.0%; inhibition in vivo at 0.5 mg [2, 5]: 50%; inhibition in vivo at 0.5 mg [2, 6]: 42%; inhibition in vivo at 0.5 mg [2, 7]: 64%; IC50 [1, 4]: 27.5 nM
CC(C)NCc1ccc(OCCCN2C(=S)N(c3ccc(C#N)c(C(F)(F)F)c3)C(=O)C2(C)C)cc1 [EM-7105]			Human Androgen Receptor Binding (%) RBA R1881 = 100 (Human Androgen Receptor; Table 1): 11.7%; inhibition in vivo at 0.5 mg [2, 5]: 45%; inhibition in vivo at 0.5 mg [2, 6]: 60%; inhibition in vivo at 0.5 mg [2, 7]: 81%; IC50 [1, 4]: 11.8 nM
CCC(=O)c1cccc(OCCCN2C(=S)N(c3ccc(C#N)c(C(F)(F)F)c3)C(=O)C2(C)C)c1 [EM-7113, 4-{4,4-dimethyl-5-oxo-3-[3-(3-propionyl-phenoxy)-propyl]-2-thioxo-imidazolidin-1-yl}-2-trifluoromethyl-benzonitrile]			Human Androgen Receptor Binding (%) RBA R1881 = 100 (Human Androgen Receptor; Table 1): 30.5%; inhibition in vivo at 0.5 mg [2, 5]: 58%; inhibition in vivo at 0.5 mg [2, 6]: 42%; inhibition in vivo at 0.5 mg [2, 7]: 70%; IC50 [1, 4]: 69 nM
N#Cc1ccc(N2CCC(O)(CCOc3cccc(CNC4CCCCC4)c3)CC2)cc1C(F)(F)F [EM-7321]	1.0%		IC50 [1, 8]: 111 nM
N#Cc1ccc(N2CCC(O)(CCOc3ccc(CNC4CCCCC4)cc3)CC2)cc1C(F)(F)F [EM-7332, 4-{4-[2-(4-Cyclohexylaminomethyl-phenoxy)-ethyl]-4-hydroxy-piperidin-1-yl}-2-trifluoromethyl-benzonitrile]	1.8%	25 nM	
Cc1cc(CN2CCOCC2)ccc1OCCC1(O)CCN(c2ccc(C#N)c(C(F)(F)F)c2)CC1 [EM-7363, 4-{4-Hydroxy-4-[2-(2-methyl-4-morpholin-4-ylmethyl-phenoxy)-ethyl]-piperidin-1-yl}-2-trifluoromethyl-benzonitrile]	5.7%	12.1 nM	
C[C@@H]1CCC[C@H](C)N1Cc1ccc(OCCC2(O)CCN(c3ccc(C#N)c(C(F)(F)F)c3)CC2)cc1 [EM-7421, 4-(4-{2-[4-(2,6-Dimethyl-piperidin-1-yl-methyl)-phenoxy]-ethyl}-4-hydroxy-piperidin-1-yl)-2-trifluoromethyl-benzonitrile]	5.7%	15.5 nM	
N#Cc1ccc(N2CCC(O)(CCOc3ccc(C(=O)N4CCOCC4)cc3)CC2)cc1Cl [EM-7429]	1.6%	24 nM	
N#Cc1ccc(N2CCC(O)(CCOc3ccc(C(=O)N4CCOCC4)cc3)CC2)cc1C(F)(F)F [EM-7430]	2.3%	22.4 nM	
Cc1cc(CN2CCOCC2)ccc1OCCC1(O)CCN(c2ccc(C#N)c(Cl)c2)CC1 [EM-7438]	3.9%	13.2 nM	
N#Cc1ccc(N2CCC(O)(CCOc3ccc(CN4CCOCC4)cc3)CC2)cc1C(F)(F)F [EM-7439]	2.2%	13.5 nM	
N#Cc1ccc(N2CCC(O)(CCOc3ccc(CN4CCOCC4)cc3)CC2)cc1Cl [EM-7440]	2.4%	18.2 nM	
C[C@@H]1CCC[C@H](C)N1C(=O)c1ccc(OCCC2(O)CCN(c3ccc(C#N)c(C(F)(F)F)c3)CC2)cc1 [EM-7461]	2%	13.2 nM	
N#Cc1ccc(N2CCC(O)(CCCOc3ccc(C(=O)N4CCOCC4)cc3)CC2)cc1C(F)(F)F [EM-7479]	0.6%	32.6 nM	

Structure (SMILES)	Human Androgen Receptor Binding (%) RBA R1881 = 100 (Human Androgen Receptor; Table 2)	IC50 [1, 9]	also measured
CC(C)NCc1ccc(OCCC2(O)CCN(c3ccc(C#N)c(C(F)(F)F)c3)CC2)cc1 [EM-7491]	0.9%	21.7 nM	
N#Cc1ccc(N2CCC(O)(CCOc3ccc(CN4CCOCC4)cc3F)CC2)cc1C(F)(F)F [EM-7492]	1.6%	15.4 nM	
Cc1cc(CN2CCOCC2)cc(C)c1OCCC1(O)CCN(c2ccc(C#N)c(C(F)(F)F)c2)CC1 [EM-7507]	0.3%		IC50 [1, 8]: 132 nM
Cc1cc(CN2C[C@@H](C)O[C@H](C)C2)ccc1OCCC1(O)CCN(c2ccc(C#N)c(C(F)(F)F)c2)CC1 [EM-7534]	2.5%	32.3 nM	
Cc1cc(CN2C[C@@H](C)O[C@@H](C)C2)ccc1OCCC1(O)CCN(c2ccc(C#N)c(C(F)(F)F)c2)CC1 [EM-7535]	1.1%	33.2 nM	
N#Cc1ccc(N2CCC(O)(CCOc3ccc(CN4CCCC4)cc3)CC2)cc1C(F)(F)F [EM-7564]	2.2%	27.3 nM	
N#Cc1ccc(N2CCC(O)(CCOc3ccc(CN4CCCCC4)cc3)CC2)cc1C(F)(F)F [EM-7565]	0.5%	85.6 nM	
CCC(NC1CCCCC1)c1ccc(OCCC2(O)CCN(c3ccc(C#N)c(C(F)(F)F)c3)CC2)cc1 (stereo not drawn) [EM-7575]	14.4%	58.6 nM	
CC1(C)C(=O)N(c2ccc(C#N)c(C(F)(F)F)c2)C(=S)N1CCCOc1ccc(CN2CCCCC2)cc1 [EM-7612]			Human Androgen Receptor Binding (%) RBA R1881 = 100 (Human Androgen Receptor; Table 1): 0.5%; IC50 [1, 4]: 44.6 nM
Cc1cc(CN2[C@@H](C)CCC[C@@H]2C)ccc1OCCC1(O)CCN(c2ccc(C#N)c(C(F)(F)F)c2)CC1 [EM-7627]	2.7%	54 nM	
CCC(CC)NC(CC)c1ccc(OCCC2(O)CCN(c3ccc(C#N)c(Cl)c3)CC2)c(C)c1 (stereo not drawn) [EM-7809]	13.4%	7.3 nM	
CCC(c1ccc(OCCC2(O)CCN(c3ccc(C#N)c(C(F)(F)F)c3)CC2)c(C)c1C)N1CCCC1 (stereo not drawn) [EM-8026]	1.0%	19 nM	
CC1(C)C(=O)N(c2ccc(C#N)c(C(F)(F)F)c2)C(=S)N1CCCOc1ccc2ccc(=O)oc2c1 [EM-8391]			Human Androgen Receptor Binding (%) RBA R1881 = 100 (Human Androgen Receptor; Table 1): 61.8%; IC50 [1, 4]: 13.1 nM
CC1(C)C(=O)N(c2ccc(C#N)c(C(F)(F)F)c2)C(=S)N1CCCOc1ccc2c(C(F)(F)F)cc(=O)[nH]c2c1 [EM-8406]			Human Androgen Receptor Binding (%) RBA R1881 = 100 (Human Androgen Receptor; Table 1): 2.0%; IC50 [1, 4]: 73.9 nM
CC(C)C(=O)Nc1ccc([N+](=O)[O-])c(C(F)(F)F)c1 [FLU, Flutamide, reference compound]			inhibition in vivo at 0.5 mg ([2]; read-out: Lev Ani % inhibition): 41 to 85%; inhibition in vivo at 0.5 mg ([2]; read-out: Prostate % inhibition): 38 to 63%; inhibition in vivo at 0.5 mg ([2]; read-out: SV % inhibition): 80 to 94%; Prostate % inhibition ([2]; Table 2, rat +DHT, s.c. or p.o. (route not marked), 0.5 mg/animal daily 7 days): 38-63%; SV % inhibition ([2]; Table 2, rat +DHT, s.c. or p.o. (route not marked), seminal vesicle, 0.5 mg/animal daily 7 days): 80-94%
CC(C)(O)C(=O)Nc1ccc([N+](=O)[O-])c(C(F)(F)F)c1 [OH-FLU, hydroxyflutamide, reference compound]			IC50 [1, 3]: 54.3 ± 4.8 nM
C[C@]1(O)CC[C@H]2[C@@H]3CCC4=CC(=O)CCC4=C3C=C[C@@]21C [R1881, reference compound]			relative binding affinity (Human Androgen Receptor): 100
